# Values of other authors as cited in patent US20080104001A1, “ALGORITHM FOR ESTIMATION OF BINDING EQULIBRIA IN INCLUSION COMPLEXATION, HOST COMPOUNDS IDENTIFIED THEREBY AND COMPOSITIONS OF HOST COMPOUND AND PHARMACEUTICAL” (priority 2006, published 2008).
# Conditions: by itself, without cyclodextrin
row,SMILES,aqueous solubility
1,CCC(C)n1ncn(-c2ccc(N3CCN(c4ccc(OCC5COC(Cn6cncn6)(c6ccc(Cl)cc6Cl)O5)cc4)CC3)cc2)c1=O (stereo not shown) [itraconazole],less than 0.1 microgram/mL

# Conditions: cross-validation set; literature values
row,SMILES,Log K(1:1) Measured
1,O=C(O)c1ccc(O)cc1 [p-hydroxybenzoic-acid],3.03
2,NC(=O)N1c2ccccc2C=Cc2ccccc21 [Carbamazepine],2.83
3,O=C1CN=C(c2ccccc2Cl)c2cc([N+](=O)[O-])ccc2N1 [clonazepam],1.9
4,O=C(O)C12CCC(CC1)C2 [1-bicyclo[2.2.1]heptanecarboxylic acid],4.18
5,CN[C@@H](C)[C@H](O)c1ccccc1 [Ephedrine],2.25
6,COc1ccc2c(c1)c(CC(=O)O)c(C)n2C(=O)c1ccc(Cl)cc1 [indomethacin],2.72
7,Nc1ccc(-c2ccc(N)cc2)cc1 [benzidine],3.36
8,"Ic1ccc(I)cc1 [1,4 diiodobenzene]",3.18
9,O=C(O)c1cccc(O)c1 [3-hydroxybenzoic acid],2.46
10,CN1C(=O)CC(=O)N(c2ccccc2)c2cc(Cl)ccc21 [clobazam],1.73
11,Nc1ccc(C(=O)O)cc1 [4-aminobenzoic acid],2.70
12,OC1CCC1 [cyclobutanol],1.18

# Same assay, conditions: training set; published stability constants (Connors, 1995)
row,SMILES,Log K(1:1)
1,c1ccc2c(c1)ccc1ccccc12 [phenanthrene],3.18
2,CCC1(CC)C(=O)NC(=O)N(C)C1=O [metharbital],2.36
3,CC(C)CCO [3-methyl-1-butanol],2.21
4,c1ccc2cc3ccccc3cc2c1 [anthracene],3.41
5,"Cc1ccc(C)c2ccccc12 [1,4-dimethylnaphthalene]",2.54
6,O=C(O)c1ccc(O)cc1 [p-hydroxybenzoic-acid],3.03
7,O=C1CCCCC1 [cyclohexanone],2.71
8,Cc1ccccc1O [2-methylphenol],2.12
9,c1ccccc1 [benzene],2.17
10,"Oc1ccc(O)cc1 [1,4-benzenediol]",2.09
11,OCc1ccccc1 [benzyl alcohol],1.7
12,CC(=O)[C@H]1CC[C@H]2[C@@H]3CCC4=CC(=O)CC[C@]4(C)[C@H]3CC[C@]12C [Progesterone],4.28
13,CCCOC(=O)c1ccc(O)cc1 [propylparaben],2.97
14,"Cc1cccc(C)c1C [1,2,3-trimethylbenzene]",2.26
15,c1ccc2nc3ccccc3cc2c1 [Acridine],2.46
16,"Oc1ccccc1O [1,2-benzenediol]",2.04
17,"Brc1ccc(Br)cc1 [1,4-dibromobenzene]",2.97
18,O=C(O)c1ccccc1O [salicylic-acid],2.63
19,c1ccc2c(c1)cc1ccc3cccc4ccc2c1c34 [benzo[a]pyrene],3.34
20,CCC1(C2=CCCCC2)C(=O)NC(=O)NC1=O [Cyclobarbital],3.11
21,C1CCCCCCC1 [Cyclooctane],3.23
22,"Clc1ccc(Cl)cc1 [1,4-dichlorobenzene]",2.51
23,"Oc1cccc(O)c1 [1,3-benzenediol]",2.04
24,C1COCCN1 [morpholine],1.23
25,Cc1ccc2ccccc2c1 [2-methylnaphthalene],2.85

row,SMILES,Log K(1:1)
1,Cc1cccc(O)c1 [3-methylphenol],2.34
2,C=CCC1(C(C)CCC)C(=O)NC(=O)NC1=O (stereo not shown) [Secobarbital],3.26
3,O=C1OC(c2ccc(O)cc2)(c2ccc(O)cc2)c2ccccc21 [phenolphthalein],4.56
4,CC(C(=O)O)c1ccc(-c2ccccc2)c(F)c1 (stereo not shown) [flurbiprofen],3.71
5,CCCCCC1(CC)C(=O)NC(=O)NC1=O [5-ethyl-5-pentylbarbituric acid],3.1
6,Ic1ccccc1 [iodobenzene],2.9
7,"Cc1ccc(C)c(C)c1 [1,2,4-trimethylbenzene]",2.94
8,Oc1ccc2ccccc2c1 [2-naphthol],2.77
9,C1=Cc2cccc3cccc1c23 [Acenaphthylene],2.41
10,CCCCOC(=O)c1ccc(O)cc1 [butylparaben],3.32
11,CC(=O)OCC(=O)[C@@]1(O)CC[C@H]2[C@@H]3CCC4=CC(=O)CC[C@]4(C)[C@H]3C(=O)C[C@@]21C [cortisone acetate],3.62
12,CCCC1(CC)C(=O)NC(=O)NC1=O [5-ethyl-5-propylbarbituric acid],2.19
13,O=C1NC(=O)C(c2ccccc2)(c2ccccc2)N1 [Phenytoin],2.93
14,O=C(O)Cc1ccccc1Nc1c(Cl)cccc1Cl [Diclofenac],2.18
15,"CCN(CC)c1ccccc1 [N,N-diethylaniline]",2.96
16,Cc1cccc2ccccc12 [1-methylnaphthalene],2.64
17,C[C@]12CCC(=O)C=C1CC[C@@H]1[C@@H]2C(=O)C[C@@]2(C)[C@H]1CC[C@]2(O)C(=O)CO [Cortisone],3.39
18,"Fc1ccc(F)cc1 [1,4-difluorobenzene]",1.6
19,CCCCC(=O)O[C@]1(C(=O)CO)[C@@H](C)C[C@H]2[C@@H]3CCC4=CC(=O)C=C[C@]4(C)[C@@]3(F)[C@@H](O)C[C@@]21C [betamethasone-17-valerate],3.32
20,CCCC(C)O (stereo not shown) [2-pentanol],1.65
21,O=C(c1ccccc1)c1ccccc1 [benzophenone],3.08
22,Fc1ccccc1 [fluorobenzene],1.85
23,C[C@]12C=CC(=O)C=C1CC[C@@H]1[C@@H]2[C@@H](O)C[C@@]2(C)[C@H]1CC[C@]2(O)C(=O)CO [Prednisolone],3.45
24,CCCCCO [1-pentanol],1.97
25,CCCCCCC(C)O (stereo not shown) [2-octanol],3.13

row,SMILES,Log K(1:1)
1,Oc1cccc2ccccc12 [1-naphthol],2.09
2,C1CCCC1 [cyclopentane],1.95
3,c1ccc(Nc2ccccc2)cc1 [diphenylamine],3.03
4,C[C@]12C=CC(=O)C=C1CC[C@H]1[C@@H]3C[C@@H](O)[C@](O)(C(=O)CO)[C@@]3(C)C[C@H](O)[C@@]12F [Triamcinolone],3.37
5,CCCCCC(=O)O [hexanoic acid],2.47
6,C1CCCCC1 [cyclohexane],2.19
7,"CCC1(CC)C(=O)NC(=S)NC1=O [5,5-diethyl-2-thiobarbituric acid]",2.47
8,c1ccc2cc3cc4ccccc4cc3cc2c1 [naphthacene],3.53
9,O=C(O)C12CC3CC(CC(C3)C1)C2 [1-adamantanecarboxylic-acid],5.81
10,CCCCCCCC1(CC)C(=O)NC(=O)NC1=O [5-ethyl-5-heptylbarbituric acid],3.61
11,OC1CCCCC1 [Cyclohexanol],2.75
12,CC(C)c1ccccc1 [1-methylethylbenzene],3.08
13,Brc1ccccc1 [bromobenzene],2.49
14,COc1ccccc1 [Anisole],2.14
15,CCCCCCCCO [1-octanol],3.29
16,c1cc2ccc3cccc4ccc(c1)c2c34 [pyrene],2.45
17,CC(=O)OCC(=O)[C@@]1(O)CC[C@H]2[C@@H]3CCC4=CC(=O)C=C[C@]4(C)[C@H]3[C@@H](O)C[C@@]21C [prednisolone-21-acetate],3.76
18,CCCCCCC [Heptane],1.84
19,Nc1ccccc1 [Aniline],1.89
20,Clc1ccccc1 [chlorobenzene],2.2
21,ClC(Cl)(Cl)Cl [tetrachloromethane],2.18
22,C[C@]12CC[C@H]3[C@@H](CCC4=CC(=O)CC[C@@]43C)[C@@H]1CC[C@@H]2O [Testosterone],3.8
23,"Cc1cccc2c(C)cccc12 [1,5-dimethylnaphthalene]",2.3

# Same assay, conditions: validation set; known binding constants
row,SMILES,Log K(1:1)
1,c1ccc2ccccc2c1 [Naphthalene],2.87
2,Cc1ccc(C(=O)O)cc1 [p-toluic acid],3.23
3,FF [Fluorine],3.13
4,CCCCCCCCCC(=O)O [decanoic acid],3.97
5,"Oc1ccc(O)cc1 [1,4-benzenediol]",2.09
6,"CC(C)(C)CO [2,2-dimethylpropanol]",2.69
7,CN[C@@H](C)[C@H](O)c1ccccc1 [Ephedrine],2.25
8,CCOC(=O)c1ccc(N)cc1 [ethyl-p-aminobenzoate],2.69
9,Cc1cccc(O)c1 [3-methylphenol],2.34
10,C[C@]12CCC(=O)C=C1CC[C@@H]1[C@@H]2[C@@H](O)C[C@@]2(C)[C@H]1CC[C@]2(O)C(=O)CO [Hydrocortisone],3.46
11,CC(=O)OCC(=O)[C@@]1(O)CC[C@H]2[C@@H]3CCC4=CC(=O)CC[C@]4(C)[C@H]3[C@@H](O)C[C@@]21C [hydrocortisone-21-acetate],3.51
12,OC1CCCCCCC1 [Cyclooctanol],3.3
13,O=C(O)C=Cc1ccccc1 [cinnamic acid],2.57
14,CC(=O)Oc1ccccc1C(=O)O [acetylsalicylic acid],3.23
15,CC(=O)Nc1ccc(O)cc1 [Acetaminophen],2.03
16,CC(=O)OCC(COC(C)=O)OC(C)=O [glyceryl triacetate],1.15
17,c1cc2c3c(cccc3c1)CC2 [Acenaphthene],2.01
